# Reference: patent US20220323594A1, “LIPIDATED CATIONIC PEPTIDE-PEG COMPOSITIONS FOR NUCLEIC ACID DELIVERY” (NUTCRACKER THERAPEUTICS, INC., priority 2019, published 2022)
# Like-named read-outs stand apart in the source and are kept apart here.
# Assays:
# [1] = Dynamic light scattering (DLS) of mRNA/peptoid formulations: particle size and polydispersity; type: physicochemical; settings: Fluc mRNA/peptoid formulation; for Size PDI: size polydispersity index by DLS, 5:1 mass ratio; for Size (nm): volume average particle size/diameter by DLS, 5:1 mass ratio peptoid:cargo
# Description: (§1) To prepare nanoparticle formulations, the amino lipidated peptoid is mixed by pipetting with nucleic acid at a mass ratio between approximately 1:1 (peptoid:cargo) and 20:1. Prior to formulation, amino lipidated peptoid and nucleic acid cargo were diluted in ethanol and acidic buffer (PBS adjusted to pH 5.5 with 0.1 M HCl) respectively to a volume ratio of 1:3 and to target a final cargo concentration of approximately 0.05 mg/mL to 0.2 mg/mL. The exemplary amino lipidated cationic peptoids described in Example 2 were combined with firefly luciferase (Fluc) mRNA to form nanoparticle compositions to be evaluated for therapeutic and/or prophylactic purposes in vitro or in vivo. The formulations were prepared according to the protocol of Example 3 and mixed by simple pipetting. The mRNA/peptoid formulation at a 5:1 mass ratio of peptoid:cargo were evaluated by dynamic light scattering (DLS) in order to determine the volume average particle size/diameter (nm) of the mRNA/peptoid complex and the size polydispersity index (PDI) within the formulation. The percentage of mRNA encapsulation for each formulation of the exemplary compounds were determined by fluorescence of the Qubit RNA HS (Invitrogen) dye before and after lysis of particles by Triton X-100.
# [2] = mRNA encapsulation by fluorescence of Qubit RNA HS dye before and after lysis with Triton X-100; type: physicochemical; settings: percentage of mRNA encapsulation; Fluc mRNA/peptoid formulation, 5:1 mass ratio
# Description: as §1, with “The” for “To prepare nanoparticle formulations, the amino lipidated peptoid is mixed by pipetting with nucleic acid at a mass ratio between approximately 1:1 (peptoid:cargo) and 20:1. Prior to formulation, amino lipidated peptoid and nucleic acid cargo were diluted in ethanol and acidic buffer (PBS adjusted to pH 5.5 with 0.1 M HCl) respectively to a volume ratio of 1:3 and to target a final cargo concentration of approximately 0.05 mg/mL to 0.2 mg/mL. The”
# HeLa cells [3] = experiment: In vitro expression of firefly luciferase (Fluc) after treatment with Fluc mRNA/amino lipidated peptoid formulations, no PEG or 2% DMG-PEG2000; type: cell-based
# Description: The efficacy of mRNA/amino lipidated peptoid formulations was evaluated in vitro based on their ability to deliver the firefly luciferase (Fluc) reporter gene to cultured cells. Amino lipidated peptoids were combined with Fluc mRNA at a 5:1 w/w ratio, and the resulting particles were added to cultured HeLa cells at a dose of 100 ng/well (in 100 μL total volume). The resulting luciferase expression (RLU) was measured by a luminescence plate reader after 6 hours and 24 hours of treatment. […] In addition to evaluating nanoparticle complexes formed between mRNA cargos and amino lipidated peptoids alone, multicomponent formulations containing a small amount of PEG-lipid DMG-PEG2000 were also tested for in vitro Fluc mRNA delivery. In these formulations, DMG-PEG2000 was pre-mixed with candidate peptoid at an overall 2% incorporation (w/w), while maintaining the same 5:1 mass ratio of peptoid:mRNA used previously.
# HeLa cells [4] = experiment: In vitro Fluc expression with variable peptoid:mRNA mass ratio, 2% DMG-PEG2000; type: cell-based; settings: 24 h; for Observed Luciferase Expression (RLU) for Given Formulation Mass Ratio 2:1: 2% (w/w) DMG-PEG2000, peptoid:mRNA 2:1; for Observed Luciferase Expression (RLU) for Given Formulation Mass Ratio 3.5:1: 2% (w/w) DMG-PEG2000, peptoid:mRNA 3.5:1; for Observed Luciferase Expression (RLU) for Given Formulation Mass Ratio 5:1: 2% (w/w) DMG-PEG2000, peptoid:mRNA 5:1; for Observed Luciferase Expression (RLU) for Given Formulation Mass Ratio 7.5:1: 2% (w/w) DMG-PEG2000, peptoid:mRNA 7.5:1
# Description: The charge ratio dependence of amino lipidated peptoid delivery vehicles was evaluated by formulating particles between Fluc mRNA and delivery vehicles at varying mass ratios. Formulations were varied between 2:1 and 7.5:1 peptoid:mRNA (w/w) ratios (2:1, 3.5:1, 5:1 and 7.5:1). In addition, the role of DMG-PEG2000 was also explored with the mass ratios, either by excluding DMG-PEG2000 or incorporating DMG-PEG2000 at 2% (w/w) relative to amino lipidated peptoid. Fluc expression from these formulations was measured in HeLa cells following treatment for 24 hours. […] FIGS. 6B and 6C show plots of the average bioluminescence (RLU) for HeLa cells treated with the formulations of exemplary amino lipidated cationic peptoid compounds 1-36, all formulated with 2% w/w DMG-PEG2000.
# [5] = MTT viability assay after treatment with Fluc mRNA/amino lipidated peptoid formulations; type: cell-based; settings: human, HeLa cells
# Description: Cellular viability was measured following treatment with Fluc mRNA/amino lipidated peptoid formulations by a traditional MTT viability assay. […] In this assay, cells were first treated with peptoid formulations at a final mRNA concentration of 100 ng/well for 8 hours. Cells were then left to grow for 48 hours, after which time they were exposed to 1.5 mg/mL 3-(4,5-dimethylthiazol-2-yl)-2,5-diphenyltetrazolium bromide (MTT) for 2 hours, then lysed using a solubilizing solution of 10% Triton-X 100 in acidic isopropanol (0.1N HCl). The signal corresponding to reduced formazan was normalized to untreated cells to provide a relative viability of each treated condition. […] In general, nearly all conditions maintained at least 80% viability with the only exceptions being formulations of compound 5, 34, and 35.
# [6] = no PEG, peptoid:Fluc mRNA 5:1 w/w, 100 ng/well, 6 h of treatment
# [7] = no PEG, peptoid:Fluc mRNA 5:1 w/w, 100 ng/well, 24 h of treatment
# [8] = with 2% (w/w) DMG-PEG2000, peptoid:mRNA 5:1, 6 h after treatment
# [9] = with 2% (w/w) DMG-PEG2000, peptoid:mRNA 5:1, 24 h after treatment
# [10] = MTT, 2% (w/w) DMG-PEG2000, 5:1 mass ratio, 100 ng/well mRNA for 8 h then 48 h growth, normalized to untreated cells, read-out: Relative Viability (%) 2% PEG
# [11] = MTT, formulation alone (no PEG), 5:1 mass ratio, 100 ng/well mRNA for 8 h then 48 h growth, normalized to untreated cells, read-out: Relative Viability (%) No PEG
Structure (SMILES),Size PDI [1],Size (nm) [1] [nm],% Encapsulation [2] [%],Luciferase Expression (RLU) 6 h (HeLa cells [3]; [6]) [RLU],Luciferase Expression (RLU) 24 h (HeLa cells [3]; [7]) [RLU],Luciferase Expression (RLU) 6 h (HeLa cells [3]; [8]) [RLU],Luciferase Expression (RLU) 24 h (HeLa cells [3]; [9]) [RLU],Observed Luciferase Expression (RLU) for Given Formulation Mass Ratio 2:1 (HeLa cells [4]) [RLU],Observed Luciferase Expression (RLU) for Given Formulation Mass Ratio 3.5:1 (HeLa cells [4]) [RLU],Observed Luciferase Expression (RLU) for Given Formulation Mass Ratio 5:1 (HeLa cells [4]) [RLU],Observed Luciferase Expression (RLU) for Given Formulation Mass Ratio 7.5:1 (HeLa cells [4]) [RLU],"viability at 8 h, 500 ng/well [5, 10] [%]","viability at 8 h, 500 ng/well [5, 11] [%]","viability at 8 h, 500 ng/well ([5]; Relative Viability (%) 2% PEG) [%]","viability at 8 h, 500 ng/well ([5]; Relative Viability (%) No PEG) [%]"
CCCCCCCCCCN(CC(N)=O)C(=O)CN(CCc1ccccc1)C(=O)CN(CCc1ccccc1)C(=O)CN(CCN)C(=O)CN(CCc1ccccc1)C(=O)CN(CCc1ccccc1)C(=O)CN(CCN)C(=O)CN(CCc1ccccc1)C(=O)CN(CCc1ccccc1)C(=O)CNCCN [Compound 6],0.348,448.6,92.4,4.30E+01,3.60E+01,1.38E+02,2.13E+01,8.18E+01,8.18E+01,6.97E+01,4.56E+01,88.9,88,–,–
CCCCCCCCCCN(CC(N)=O)C(=O)CN(CCCCCCCCCC)C(=O)CN(CCCCCCCCCC)C(=O)CN(CCc1ccccc1)C(=O)CN(CCc1ccccc1)C(=O)CN(CCN)C(=O)CN(CCc1ccccc1)C(=O)CN(CCc1ccccc1)C(=O)CN(CCN)C(=O)CN(CCc1ccccc1)C(=O)CN(CCc1ccccc1)C(=O)CNCCN [Compound 7],0.177,296.7,88.4,6.45E+03,9.71E+03,2.77E+03,1.81E+03,1.61E+04,1.43E+04,2.20E+04,5.92E+03,96,78,–,–
CCCCCCCCCCN(CC(N)=O)C(=O)CN(CCCCCCCCCC)C(=O)CN(CCc1ccccc1)C(=O)CN(CCc1ccccc1)C(=O)CNCCN [Compound 9],0.122,367.9,73.9,1.52E+02,8.57E+01,1.38E+02,3.33E+01,2.28E+02,3.67E+02,9.91E+02,1.82E+02,–,–,107,99.3
CCCCCCCCCCN(CC(N)=O)C(=O)CN(CCCCCCCCCC)C(=O)CN(CCc1ccccc1)C(=O)CN(CCc1ccccc1)C(=O)CN(CCN)C(=O)CN(CCc1ccccc1)C(=O)CN(CCc1ccccc1)C(=O)CN(CCN)C(=O)CN(CCc1ccccc1)C(=O)CN(CCc1ccccc1)C(=O)CN(CCN)C(=O)CN(CCc1ccccc1)C(=O)CN(CCc1ccccc1)C(=O)CNCCN [Compound 11],0.038,354.9,87.8,1.15E+03,1.22E+03,3.90E+02,5.23E+02,2.79E+04,3.14E+04,4.48E+04,4.36E+03,–,–,104,104
CCCCCCCCCCN(CC(N)=O)C(=O)CN(CCCCCCCCCC)C(=O)CN(CCc1ccccc1)C(=O)CN(CCN)C(=O)CN(CCc1ccccc1)C(=O)CN(CCN)C(=O)CN(CCc1ccccc1)C(=O)CNCCN [Compound 13],0.447,822.6,90.4,3.67E+00,9.67E+00,3.27E+01,2.67E+00,2.68E+01,1.74E+01,1.39E+02,5.36E+00,–,–,85.9,90.2
CCCCCCCCCCN(CC(N)=O)C(=O)CN(CCCCCCCCCC)C(=O)CN(CCN)C(=O)CN(CCN)C(=O)CN(CCN)C(=O)CN(CCN)C(=O)CNCCN [Compound 15],1,1064,76.9,3.93E+01,1.90E+01,5.33E+00,5.33E+00,8.85E+01,3.62E+01,2.01E+01,6.70E+00,–,–,91.9,91.2
CCCCCCCCCCN(CC(N)=O)C(=O)CN(CCCCCCCCCC)C(=O)CN(CCN)C(=O)CN(CCN)C(=O)CN(CCN)C(=O)CN(CCN)C(=O)CN(CCN)C(=O)CN(CCN)C(=O)CN(CCN)C(=O)CN(CCN)C(=O)CNCCN [Compound 16],1,1486,85.4,7.33E+00,1.67E+01,2.63E+01,5.00E+00,1.01E+02,4.16E+01,2.55E+01,1.47E+01,–,–,90.8,89.4
